Here are results for seven molecules from ChEMBL document CHEMBL1955772, “Cytotoxic terpenoids from Juglans sinensis leaves and twigs” (Bioorg Med Chem Lett, 2012).

Experiment [1] can be described thus: Cytotoxicity against human U87MG cells after 24 hrs by MTS assay. The format is functional, cell-based, U-87MG ATCC. The note with it: U-87 MG.
Experiment [2] relates to MCF7. As to the kind of experiment: Cytotoxicity against human MCF7 cells after 24 hrs by MTS assay. The format is functional, cell-based. The following applies: MCF7, 24 h. (In general: Tetrazolium dyes change colour on reduction, which living cells bring about.)
Experiment [3] relates to HEp-2. Description: Cytotoxicity against human Hep2 cells after 24 hrs by MTS assay. The format is functional, cell-based. The following applies: HEp-2, 24 h.
Experiment [4] has as its system B16-F10. Description: Cytotoxicity against mouse B16F10 cells after 24 hrs by MTS assay. The format is functional, cell-based. The following applies: B16-F10, 24 h.

In the case of `C[C@H]1[C@H](C)CC[C@]2(C(=O)O[C@@H]3O[C@H](CO)[C@@H](O)[C@H](O)[C@H]3O)CC[C@]3(C)C(=CC[C@@H]4[C@@]5(C)C[C@@H](O)[C@@H](O)[C@@](C)(CO)[C@@H]5CC[C@]43C)[C@H]12`, the 50% inhibitory concentration (IC50) (as a rule, the concentration at which inhibition is half-maximal) in experiment [1] was more than 10000 nM; in experiment [2] it was more than 10 µM; in experiment [3], more than 10 µM; in experiment [4], more than 10000 nM.

As for `CC(C)(O[C@@H]1O[C@H](CO)[C@@H](O)[C@H](O)[C@H]1O)[C@@H]1CC[C@@]2(C)CCC=C(CO)[C@@H]2C1`, the IC50 in experiment [1] was more than 10000 nM; in experiment [2] it was more than 10 µM; in experiment [3], more than 10 µM; in experiment [4] it was more than 10000 nM.

With `CC(C)(O)[C@@H]1C[C@H]2[C@@](C)(C[C@@H]3C[C@@]32C)C[C@@H]1O`, the IC50 in experiment [1] was 1130 nM; in experiment [2], 1.81 µM; in experiment [3], 4.22 µM; in experiment [4] it was more than 10000 nM.

Regarding `CC(C)(O)[C@@H]1C[C@H]2[C@](C)(CC1=O)C[C@@H]1C[C@@]12C`, the IC50 is 1160 nM in experiment [1], 4.11 µM in experiment [2], 5.25 µM in experiment [3] and 300 nM in experiment [4].

For `CO[C@@H]1O[C@@]2(CO)CC[C@@]13CC[C@]1(C)[C@H](C[C@@H](O)[C@@H]4[C@@]5(C)CC[C@H](O)[C@](C)(CO)[C@@H]5CC[C@]41C)[C@@H]3[C@]2(C)O` (relative stereo), the IC50 is 3290 nM in experiment [1], 1.25 µM in experiment [2], 5.52 µM in experiment [3] and 1530 nM in experiment [4].

With `CC1(C)C=C2[C@H]3CC[C@@H]4[C@@]5(C)[C@@H](O)C[C@H](O)C(C)(C)[C@@H]5CC[C@@]4(C)[C@]3(C)CC[C@@]2(C)CC1` (relative stereo), the IC50 in experiment [1] turned out to be 1310 nM; in experiment [2] it was 3.86 µM; in experiment [3], 5.4 µM; in experiment [4], 300 nM.

Turning to `CC(C)(O)[C@@H]1C[C@H]2[C@@](C)(C[C@@H]3C[C@@]32C)C[C@H]1O` (relative stereo), the IC50 is more than 10000 nM in experiment [1], more than 10 µM in experiment [2], more than 10 µM in experiment [3] and more than 10000 nM in experiment [4].
